Assay results from patent publication US8372612B2, “Production of four carbon alcohols using improved strain” (Butamax(TM) Advanced Biofuels LLC, priority 2007, dated 2013).
Read-outs that look alike come from different tables or passages of the source.

Legend:
[1] = tested on: L. plantarum spoT mutant MS0280; experiment: Growth rate in Lacto Synthetic Medium with isobutanol, spoT mutant MS0280; assay type: cell-based, Lactobacillus plantarum; details: for Growth rate: MS0280, 30° C., LSM
Procedure: (§1) Strains MS0280 and MS0281, and Lactobacillus plantarum PN0512 (ATCC #PTA-7727), were tested for tolerance to isobutanol. The strains were streaked on semi-synthetic medium plates, pH 6 (medium composition: 10 mM ammonium sulfate, 5 mM potassium phosphate buffer, pH 6.0, 50 mM MES, pH 6.0, 2 mM MgCl2, 0.7 mM CaCl2, 50 μM MnCl2, 1 μM FeCl3, 1 μM ZnCl2, 1.72 μM CuCl2, 2.53 μM CoCl2, 2.42 μM Na2MoO4, 2 μM thiamine hydrochloride, 10 mM glucose, 0.01% casamino acids, 0.2% yeast extract and 1.5% agar), from frozen stock cultures. The plates that the two mutants (MS0280 and MS0281) were streaked onto also included chloramphenicol at 10 μg/ml. The plates were incubated overnight at 30° C. under anaerobic conditions. The next day, overnight cultures were started by inoculating Lacto Synthetic Medium (LSM; medium composition: 10 mM ammonium sulfate, 5 mM potassium phosphate buffer, pH 6.0, 50 mM MES, pH 6.0, 2 mM MgCl2, 0.7 mM CaCl2, 50 μM MnCl2, 1 μM FeCl3, 1 μM ZnCl2, 1.72 μM CuCl2, 2.53 μM CoCl2, 2.42 μM Na2MoO4, 2 μM thiamine hydrochloride, 10 mM glucose, 0.01% casamino acids and 0.2% yeast extract) with a diluted (1:6) culture with an initial OD600 of 0.02. These overnight cultures were allowed to incubate at 30° C. in a gently shaking water bath. The next morning, the overnight cultures were diluted to have an initial OD600 of 0.1, in a volume of 220 ml of LSM. These starter cultures were allowed to incubate at 30° C. in a gently shaking water bath for 1.25 hours, to ensure the cultures were not in a lag phase. At this time, 20 ml aliquots were dispensed to duplicate flasks containing different volumes of isobutanol, to give final concentrations of 0, 0.5, 1, 1.5 and 2%. The growth of each flask was followed by taking OD600 readings every hour. The natural log of the OD600 values were plotted on a linear scale vs time.

[2] = tested on: Lactobacillus plantarum PN0512; experiment: Growth rate in Lacto Synthetic Medium with isobutanol, parental control; assay type: cell-based; details: for Growth rate: PN0512, 30° C., LSM
Procedure: as §1

[3] = tested on: relA::kan line (strain JW2755) and the parent BW25113; assay type: cell-based, E. coli K12
Procedure: A strain of E. coli K12 having a kanamycin marker insertion in the relA coding region (relA::kan) is available in the Keio knockout collection that is described in Example 4. Overnight cultures of the relA::kan line (strain JW2755) and the parent BW25113 were inoculated with fresh colonies and grown in LB at 37° C. with shaking. The next day the cultures were diluted 1:100 into 100 ml of fresh LB in a 1 liter flask and grown for approximately 2 hours. The culture was split into 20 ml aliquots in 125 ml plastic screw top flasks. One culture remained unaltered serving as the no add control, and various concentrations of either 2-butanol or isobutanol were added to the remaining flasks. Absorbance (OD600) was monitored over time. Using a 3 hr time point for growth in isobutanol and a 2.5 hr time point for growth in 2-butanol, fractional growth yields were determined and percent improvement was calculated by subtracting […] and multiplying by 100.

[4] = tested on: mutant spoT DPD1848 line as compared to wild type EC100; assay type: cell-based, E. coli; details: for % improved spoT growth over wt: approximately 18 hours, spoT mutant percent growth minus wild type percent growth
Procedure: Kinetic growth studies were performed for the DPD1848 and the control (EC100) using the Bioscreen C Automated Microbial Growth Curve Analyis System (Oy Growth Curves Ab Ltd., Helsinki, Finland), which is an automated 96 well plate system, that monitors growth of many cultures simultaneously, each in a volume of 150 μl. Overnight triplicate cultures of each strain were grown and diluted (1:10) into either LB or LB freshly supplemented with 0.2%, 0.3%. 0.4% or 0.6% 1-butanol (w/v). The growth of each culture was followed for approximately 18 hours. The triplicates were averaged and plotted in FIG. 3 as the final 18 hour time point, normalized to EC100, and given as the percent growth inhibition relative to the no butanol control for each strain.
An additional kinetic growth study was performed as described above. The data is shown in FIG. 4 plotted as OD600 over time for the DPD1848 spoT mutant (A), and wild type (B, EC100).
A Bioscreen experiment, as described in Example 3, was used to compare growth of the mutant spoT DPD1848 line as compared to wild type EC100 in the following chemicals:
The growth of each culture was followed for approximately 18 hours. Triplicate samples were averaged, and expressed as the percent growth relative to the no chemical control for each strain. The data given in Table 8 is represented as percent growth improvement of the spoT mutant relative to wild type, which is the spoT mutant percent growth minus the wild type percent growth for each challenge.

[5] = tested on: L. plantarum spoT mutant MS0281; experiment: Growth rate in Lacto Synthetic Medium with isobutanol, spoT mutant MS0281; assay type: cell-based, Lactobacillus plantarum; details: for Growth rate: MS0281, 30° C., LSM
Procedure: as §1

[6] = tested on: DPD1850 (spoT), DPD1848 (spoT), DPD1865 (rpoZ) and the EC100 control; details: 0.5% (w/v) 1-butanol; LB, 37° C.; FIG. 2
Procedure: After a further 2 hr incubation at 37° C. with shaking, 200 μl samples were transferred to a microtiter plate and optical density at A600 recorded. The microtiter plate was moved to a platform shaker that was located within a plastic box that is in a 37° C. incubator.

[7] = tested on: E. coli strain EC100; details: LB agar, closed chamber, 37° C., 1 day
Procedure: LB agar media supplemented with butanol was prepared fresh one day before innoculating at an appropriate volume and cooled for 2 hours in a 50° C. water bath. LB agar plates supplemented with butanol were prepared by dispensing 67 mls of melted agar, using a peristaltic pump and sterile Nalgene tubing, into sterile Omni trays with lids (Nunc mfg no. 242811). […] The plates were allowed to cool and set for approximately an hour before they were stored overnight in closed anaerobic chambers at room temperature in the chemical/biological hood. The next morning, the chambers harboring the plates were opened and allowed to air dry for approximately 1 hour before using.
Plates were incubated in a closed chamber at 37° C. for 1 day. The number of colonies arising and their sizes were scored. […] Butanol concentrations of 0.4% and 0.6% were chosen to screen for tolerance.

[8] = tested on: rpoZ::kan line JW3624 and wild type control BW25113; details: 0.4 and 0.6% 1-butanol; FIG. 8
Procedure: Cultures were grown in LB medium containing 0%, 0.4% or 0.6% 1-butanol in shake flasks. The experiments were performed by inoculating 100 ml of medium in a 250 ml plastic flask with 2 ml of an overnight culture grown from a single colony grown at 37° C. and incubating with shaking for approximately two doubling times (1 hour), to an OD600 between 0.2 and 0.3. Each culture was split into five 25 ml cultures in plastic screw top 125 ml flasks and the cultures were maintained at 37° C. in a shaking water bath at 200 rpm. The OD600 was monitored at 0, 30, 90, 120 190, and 260 minutes.
In the cultures above, a final time point was taken at 18 hr and used to calculate growth yield as a function of 1-butanol challenge. For each line grown in 0, 0.4% or 0.6% 1-butanol, the final 18 hour time point was divided by the no 1-butanol 18 hr time point.

[9] = tested on: rpoZ insertion line (JW3624) and wild type BW25113; details: 0.4% 1-butanol; FIG. 5
From the text: The growth points of triplicate cultures were averaged and plotted in FIG. 5 as absorbance at OD600.

CC(C)CO [isobutanol]
Growth rate ([1]; isobutanol concentration 0.5%): 0.464 μ/hour
Growth rate ([1]; isobutanol concentration 1%): 0.426 μ/hour
Growth rate ([1]; isobutanol concentration 1.5%): 0.382 μ/hour
Growth rate ([1]; isobutanol concentration 2%): 0.359 μ/hour
Growth rate inhibition ([1]; the mutants (MS0280), 0.5% isobutanol, growth rates in presence and absence of isobutanol compared): 5%
Growth rate ([2]; isobutanol concentration 0.5%): 0.424 μ/hour
Growth rate ([2]; isobutanol concentration 1%): 0.385 μ/hour
Growth rate ([2]; isobutanol concentration 1.5%): 0.364 μ/hour
Growth rate ([2]; isobutanol concentration 2%): 0.349 μ/hour
Growth rate inhibition ([2]; the parent (PN0512), 0.5% isobutanol, growth rates in presence and absence of isobutanol compared): 9%
Percent improvement of fractional growth yield of relA mutant relative to the parent ([3]; 0.8% isobutanol, 3 hr time point, FIG. 10A): small improvement
% improved spoT growth over wt ([4]; chemical at 0.80% (w/v)): about 13.5%
% improved spoT growth over wt ([4]; chemical at 0.80% (w/v), listed as IsoBuOH): 13.5%
% improved spoT growth over wt ([4]; chemical at 1.20% (w/v)): 12.1%
% improved spoT growth over wt ([4]; chemical at 1.40% (w/v)): 11.4%
% improved spoT growth over wt ([4]; chemical at 1.60% (w/v)): 10.7%
Growth rate ([5]; isobutanol concentration 0.5%): 0.467 μ/hour
Growth rate ([5]; isobutanol concentration 1%): 0.426 μ/hour
Growth rate ([5]; isobutanol concentration 1.5%): 0.397 μ/hour
Growth rate ([5]; isobutanol concentration 2%): 0.359 μ/hour
Growth rate inhibition ([5]; the mutants (MS0281), 0.5% isobutanol, growth rates in presence and absence of isobutanol compared): 5%

CCCCO [1-butanol]
Growth of spoT and rpoZ lines relative to EC100 (difference between 4 and 2 hr time points) [6]: improved growth
Concentration at which only pinpoint colonies were seen [7]: 0.6%
Concentration from which colonies were progressively smaller [7]: ≥ 0.2%
Concentrations at which no colony formation was observed after overnight incubation [7]: ≥ 0.7 % (w/v)
Tolerance of spoT mutant versus wild type strain in terms of growth rate ([4]; all concentrations of 1-butanol tested (0.2%, 0.3%, 0.4%, 0.6% w/v), FIG. 4): more tolerant
% improved spoT growth over wt ([4]; chemical at 0.2% (w/v)): 11.4%
% improved spoT growth over wt ([4]; chemical at 0.3% (w/v)): 13.8%
% improved spoT growth over wt ([4]; chemical at 0.4% (w/v)): about 16.5%
% improved spoT growth over wt ([4]; chemical at 0.4% (w/v), listed as 1-BuOH): 16.5%
% improved spoT growth over wt ([4]; chemical at 0.6% (w/v)): 9.7%
Growth yield of rpoZ mutant versus wild type (18 hr time point divided by no 1-butanol 18 hr time point) [8]: higher growth yields than wild type
Butanol tolerant phenotype of rpoZ insertion line (OD600 growth) [9]: butanol tolerant phenotype was seen

CCC(C)=O [2-butanone]
% improved spoT growth over wt ([4]; chemical at 3% (w/v)): about 3%

CCC(C)O (stereo not drawn) [2-butanol]
Percent improvement of fractional growth yield of relA mutant relative to the parent ([3]; 0.6% 2-butanol, 2.5 hr time point, FIG. 10B): small improvement
Percent improvement of fractional growth yield of relA mutant relative to the parent ([3]; 0.8% 2-butanol, 2.5 hr time point, FIG. 10B): small improvement
% improved spoT growth over wt ([4]; chemical at 0.80% (w/v)): about 7%
% improved spoT growth over wt ([4]; chemical at 0.80% (w/v), listed as 2-BuOH): 7.2%
% improved spoT growth over wt ([4]; chemical at 1.20% (w/v)): 0%
% improved spoT growth over wt ([4]; chemical at 1.40% (w/v)): 0%
% improved spoT growth over wt ([4]; chemical at 1.60% (w/v)): 0%

CCC(C)=O [MEK, methyl ethyl ketone]
% improved spoT growth over wt ([4]; chemical at 2.50% (w/v)): 0%
% improved spoT growth over wt ([4]; chemical at 3% (w/v)): 3.1%
% improved spoT growth over wt ([4]; chemical at 3.50% (w/v)): 4.3%
% improved spoT growth over wt ([4]; chemical at 4% (w/v)): 33.5%
